Results reported in patent US10233173B2, “Substituted 1,2,3-triazoles as NR2B-selective NMDA modulators” (JANSSEN PHARMACEUTICA NV, priority 2016, dated 2019).

target: human GluN1/GluN2B NMDA receptors (Homo sapiens, UniProt Q05586+Q13224); experiment: Cell-based calcium flux (FLIPR) assay on cloned human NR1/NR2B ion channels expressed in mammalian cells; conditions: standard assay; glutamate at ~EC80; FLIPR calcium flux
Method: Effects of Test Articles on Cloned Human NR1/NR2B Ion Channels Expressed in Mammalian Cells
NMDA receptors are ion channels that are highly permeable to Ca^2+ ions, rendering it possible to monitor NMDA receptor function using cell-based calcium flux assay. In this assay, co-agonists glutamate and glycine are added to cells heterologously expressing human GluN1/GluN2B NMDA receptors to initiate cellular Ca^2+ influx. The time course of the changes in intracellular calcium is measured using a fluorescent dye and a FLIPR (Fluorometric Imaging Plate Reader) device.
Twenty four hours before measurements, the expression of the NMDA receptors in the stable cell line is induced with Tet-On inducible system in the presence of a non-selective NMDA receptor blocker. On the day of the experiment, cell culture media is carefully washed and the cells are loaded with Calcium 5 Dye Kit (Molecular Devices) in dye loading buffer containing 149 mM NaCl, 4 mM KCl, 2 mM CaCl2, and 1.5 mM MgCl2, 10 mM HEPES and 5 mM D-glucose; pH 7.4. After 1 h incubation at the room temperature, the dye is washed away with the assay buffer (149 mM NaCl (standard assay) or 150 mM (HTS assay), 4 mM KCl (standard assay) or 3 mM (HTS assay), 2 mM CaCl2, 0.01 mM EDTA, 10 mM HEPES and 5 mM D-glucose; pH 7.4) In the FLIPR TETRA reader, various concentrations of the test compounds are added to the cells for 5 min while fluorescence is monitored to detect potential agonist activity. Next, co-agonists, glutamate and glycine are added for another 5 minutes. The concentration of glutamate corresponding to ˜EC80 (standard assay) or EC40 (HTS assay) is used to maximize the assay's signal window or the ability to detect NMDA receptor antagonists and negative allosteric modulators, respectively. A saturating concentration (10 μM) of glycine is also present in the assay. […] The fluorescent signal in the presence of test compounds is quantified and normalized to the signal defined by the appropriate control wells.

Chain of human GluN1/GluN2B NMDA receptors (Q13224 27-1484, other chains not shown): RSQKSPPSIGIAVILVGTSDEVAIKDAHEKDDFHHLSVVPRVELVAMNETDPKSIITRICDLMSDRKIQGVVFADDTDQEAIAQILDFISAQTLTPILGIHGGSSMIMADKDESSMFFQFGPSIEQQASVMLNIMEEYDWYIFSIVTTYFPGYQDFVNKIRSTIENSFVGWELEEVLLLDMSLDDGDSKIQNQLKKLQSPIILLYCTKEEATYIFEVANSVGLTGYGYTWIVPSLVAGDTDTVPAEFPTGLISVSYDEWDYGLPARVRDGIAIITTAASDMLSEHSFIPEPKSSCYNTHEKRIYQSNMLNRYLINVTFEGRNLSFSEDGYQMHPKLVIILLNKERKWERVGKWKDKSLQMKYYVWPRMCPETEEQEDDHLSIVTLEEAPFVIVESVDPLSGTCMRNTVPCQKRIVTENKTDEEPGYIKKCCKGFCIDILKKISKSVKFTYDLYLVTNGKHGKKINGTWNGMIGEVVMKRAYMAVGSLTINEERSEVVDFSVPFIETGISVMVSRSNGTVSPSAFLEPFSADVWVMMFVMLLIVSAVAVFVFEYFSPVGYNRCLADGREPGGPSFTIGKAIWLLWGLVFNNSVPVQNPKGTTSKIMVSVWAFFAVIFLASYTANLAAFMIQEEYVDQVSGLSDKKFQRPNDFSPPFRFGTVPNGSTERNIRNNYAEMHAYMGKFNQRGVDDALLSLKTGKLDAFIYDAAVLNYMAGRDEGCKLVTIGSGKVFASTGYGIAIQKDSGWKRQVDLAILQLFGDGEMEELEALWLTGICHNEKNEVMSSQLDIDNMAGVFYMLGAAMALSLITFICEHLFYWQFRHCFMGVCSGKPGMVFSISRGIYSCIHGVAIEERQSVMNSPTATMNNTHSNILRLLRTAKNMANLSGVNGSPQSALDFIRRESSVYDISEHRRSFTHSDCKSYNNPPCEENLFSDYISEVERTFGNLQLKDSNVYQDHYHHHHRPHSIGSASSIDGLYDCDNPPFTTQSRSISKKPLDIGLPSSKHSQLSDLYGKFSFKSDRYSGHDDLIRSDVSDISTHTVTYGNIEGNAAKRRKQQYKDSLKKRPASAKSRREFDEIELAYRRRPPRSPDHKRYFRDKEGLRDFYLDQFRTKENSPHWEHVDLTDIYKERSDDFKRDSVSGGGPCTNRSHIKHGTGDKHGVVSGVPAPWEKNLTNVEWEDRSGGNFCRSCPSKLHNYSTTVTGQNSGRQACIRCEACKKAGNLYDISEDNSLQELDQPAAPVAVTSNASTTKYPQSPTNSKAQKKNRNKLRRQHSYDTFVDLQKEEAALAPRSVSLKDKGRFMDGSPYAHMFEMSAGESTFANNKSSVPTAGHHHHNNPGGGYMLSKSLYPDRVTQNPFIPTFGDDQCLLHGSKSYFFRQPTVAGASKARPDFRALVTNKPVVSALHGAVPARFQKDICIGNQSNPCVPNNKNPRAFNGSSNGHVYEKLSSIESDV

In order of falling IC50:
1. Cc1nc(OCc2cn(-c3cccc(Cl)c3F)nn2)ncc1F [Example 613, 2-[[1-(3-Chloro-2-fluoro-phenyl)triazol-4-yl]methoxy]-5-fluoro-4-methyl-pyrimidine]  1.44 µM
2. Fc1ccc(-n2cc(COc3ncccc3F)nn2)cc1C(F)(F)F [Example 427, 3-Fluoro-2-[[1-[4-fluoro-3-(trifluoromethyl)phenyl]triazol-4-yl]methoxy]pyridine]  0.897 µM
3. Cc1ccnc(OCc2cn(-c3ccc(F)c(C(F)(F)F)c3)nn2)c1 [Example 429, 2-[[1-[4-Fluoro-3-(trifluoromethyl)phenyl]triazol-4-yl]methoxy]-4-methyl-pyridine]  0.665 µM
4. Cc1cnc(OCc2cn(-c3cccc(F)c3C)nn2)nc1 [Example 464, 2-[[1-(3-Fluoro-2-methyl-phenyl)triazol-4-yl]methoxy]-5-methyl-pyrimidine]  0.515 µM
5. Cc1cnc(OCc2cn(-c3ccc(N4CCC4)c(C(F)F)c3)nn2)nc1 [Example 638, 2-((1-(4-(Azetidin-1-yl)-3-(difluoromethyl)phenyl)-1H-1,2,3-triazol-4-yl)methoxy)-5-methylpyrimidine]  0.511 µM
6. Fc1ccc(-n2cc(COc3ncc(F)c(NC4CC4)n3)nn2)cc1OC(F)F [Example 519, N-Cyclopropyl-2-((1-(3-(difluoromethoxy)-4-fluorophenyl)-1H-1,2,3-triazol-4-yl)methoxy)-5-fluoropyrimidin-4-amine]  0.204 µM
7. Cc1nc(OCc2cn(-c3ccc(F)c(C)c3F)nn2)ncc1F [Example 649, 2-[[1-(2,4-Difluoro-3-methyl-phenyl)triazol-4-yl]methoxy]-5-fluoro-4-methyl-pyrimidine]  0.152 µM
8. CNc1nc(OCc2cn(-c3ccc(F)c(C(F)F)c3)nn2)ncc1F [Example 414, 2-[[1-[3-(Difluoromethyl)-4-fluoro-phenyl]triazol-4-yl]methoxy]-5-fluoro-N-methyl-pyrimidin-4-amine]  0.122 µM
9. CC(C)(O)c1cnc(OCc2cn(-c3ccc(Cl)c(C(C)(F)F)c3)nn2)nc1 [Example 532, 2-[2-[[1-[4-Chloro-3-(1,1-difluoroethyl)phenyl]triazol-4-yl]methoxy]pyrimidin-5-yl]propan-2-ol]  0.081 µM
10. Fc1ccc(-n2cc(COc3nccc(C(F)F)n3)nn2)cc1C(F)F [Example 402, 4-(Difluoromethyl)-2-[[1-[3-(difluoromethyl)-4-fluoro-phenyl]triazol-4-yl]methoxy]pyrimidine]  0.051 µM
11. CN(C)c1cnc(OCc2cn(-c3ccc(F)c(C(C)(F)F)c3)nn2)nc1 [Example 590, 2-((1-(3-(1,1-Difluoroethyl)-4-fluorophenyl)-1H-1,2,3-triazol-4-yl)methoxy)-N,N-dimethylpyrimidin-5-amine]  0.039 µM
12. COCc1ccnc(OCc2cn(-c3ccc(Cl)c(C(F)F)c3)nn2)n1 [Example 627, 2-[[1-[4-Chloro-3-(difluoromethyl)phenyl]triazol-4-yl]methoxy]-4-(methoxymethyl)pyrimidine]  0.038 µM
13. Cc1ccc(-n2cc(COc3ncc(C)c(N)n3)nn2)cc1OC(F)F [Example 521, 2-[[1-[3-(Difluoromethoxy)-4-methyl-phenyl]triazol-4-yl]methoxy]-5-methyl-pyrimidin-4-amine]  0.021 µM
14. CC(O)c1cnc(OCc2cn(-c3ccc(F)c(C(C)(F)F)c3)nn2)nc1 (racemic) [Example 586, (R/S)-1-[2-[[1-[3-(1,1-Difluoroethyl)-4-fluoro-phenyl]triazol-4-yl]methoxy]pyrimidin-5-yl]ethanol]  0.014 µM
15. Fc1ccc(-n2cc(COc3ncc(N4CC(F)C4)cn3)nn2)cc1OC(F)F [Example 507, 2-[[1-[3-(Difluoromethoxy)-4-fluoro-phenyl]triazol-4-yl]methoxy]-5-(3-fluoroazetidin-1-yl)pyrimidine]  0.008 µM
16. CN(C)c1ccnc(OCc2cn(-c3ccc(F)c(OC(F)F)c3)nn2)n1 [Example 505, 2-[[1-[3-(Difluoromethoxy)-4-fluoro-phenyl]triazol-4-yl]methoxy]-N,N-dimethyl-pyrimidin-4-amine]  0.007 µM
17. Cc1cc(-n2cc(COc3ncc(F)c(C)n3)nn2)ccc1F [Example 481, 5-Fluoro-2-[[1-(4-fluoro-3-methyl-phenyl)triazol-4-yl]methoxy]-4-methyl-pyrimidine]  0.002 µM

same assay, conditions: standard assay; human GluN1/GluN2B, calcium flux (FLIPR), glutamate ~EC80

In order of falling IC50:
1. Cc1ccccc1-n1cc(COc2ncc(Cl)cn2)nn1 [Example 239, 5-Chloro-2-[[1-(o-tolyl)triazol-4-yl]methoxy]pyrimidine]  4.8 µM
2. CCc1cnc(OCc2cn(-c3ccc(OC(F)(F)F)cc3)nn2)nc1 [Example 340, 5-Ethyl-2-[[1-[4-(trifluoromethoxy)phenyl]triazol-4-yl]methoxy]pyrimidine]  0.794 µM
3. Fc1cnc(OCc2cn(-c3cccc(OC(F)F)c3)nn2)nc1 [Example 324, 2-[[1-[3-(Difluoromethoxy)phenyl]triazol-4-yl]methoxy]-5-fluoro-pyrimidine]  0.494 µM
4. FC(F)Oc1cc(-n2cc(COc3cnccn3)nn2)ccc1Cl [Example 23, 2-[[1-[4-Chloro-3-(difluoromethoxy)phenyl]triazol-4-yl]methoxy]pyrazine]  0.456 µM
5. CC(C)(O)c1cnc(OCc2cn(-c3ccc(F)c(C4CCC4)c3)nn2)nc1 [Example 178, 2-[2-[[1-(3-Cyclobutyl-4-fluoro-phenyl)triazol-4-yl]methoxy]pyrimidin-5-yl]propan-2-ol]  0.349 µM
6. Cc1ccnc(OCc2cn(-c3ccc(F)c(C(F)F)c3)nn2)c1 [Example 115, 2-[[1-[3-(Difluoromethyl)-4-fluoro-phenyl]triazol-4-yl]methoxy]-4-methyl-pyridine]  0.17 µM
7. Cc1ccnc(OCc2cn(-c3cccc(C(F)F)c3)nn2)n1 [Example 268, 2-[[1-[3-(Difluoromethyl)phenyl]triazol-4-yl]methoxy]-4-methyl-pyrimidine]  0.134 µM
8. Cc1cnc(N[C@H](C)c2cn(-c3ccc(Cl)c(OC(F)F)c3)nn2)nc1 [Example 224, N-[(1R)-1-[1-[4-Chloro-3-(difluoromethoxy)phenyl]triazol-4-yl]ethyl]-5-methyl-pyrimidin-2-amine]  0.121 µM
9. CC(F)(F)c1cccc(-n2cc(COc3ncccn3)nn2)c1 [Example 292, 2-[[1-[3-(1,1-Difluoroethyl)phenyl]triazol-4-yl]methoxy]pyrimidine]  0.105 µM
10. FC(F)Oc1cccc(-n2cc(COc3ncc(Cl)cn3)nn2)c1 [Example 326, 5-Chloro-2-[[1-[3-(difluoromethoxy)phenyl]triazol-4-yl]methoxy]pyrimidine]  0.069 µM
11. Cc1cccc(-n2cc(COc3ncc(F)c(C)n3)nn2)c1 [Example 252, 5-Fluoro-4-methyl-2-[[1-(m-tolyl)triazol-4-yl]methoxy]pyrimidine]  0.065 µM
12. CCc1cnc(OCc2cn(-c3ccc(OC(F)F)cc3)nn2)nc1 [Example 334, 2-[[1-[4-(Difluoromethoxy)phenyl]triazol-4-yl]methoxy]-5-ethyl-pyrimidine]  0.051 µM
13. CC(O)c1cnc(OCc2cn(-c3cccc(C(C)(F)F)c3)nn2)nc1 (racemic) [Example 310, (R/S)-1-[2-[[1-[3-(1,1-Difluoroethyl)phenyl]triazol-4-yl]methoxy]pyrimidin-5-yl]ethanol]  0.037 µM
14. CCc1cnc(OCc2cn(-c3cccc(OC(F)F)c3)nn2)nc1 [Example 328, 2-[[1-[3-(Difluoromethoxy)phenyl]triazol-4-yl]methoxy]-5-ethyl-pyrimidine]  0.029 µM
15. Cc1cnc(OCc2cn(-c3cccc(OC(F)(F)F)c3)nn2)nc1 [Example 342, 5-Methyl-2-[[1-[3-(trifluoromethoxy)phenyl]triazol-4-yl]methoxy]pyrimidine]  0.017 µM
16. Cc1cnc(OCc2cn(-c3cccc(C)c3)nn2)nc1 [Example 243, 5-Methyl-2-[[1-(m-tolyl)triazol-4-yl]methoxy]pyrimidine]  0.014 µM
17. Fc1ccc(-n2cc(COc3ncc(C(F)(F)F)cn3)nn2)cc1C(F)F [Example 50, 2-[[1-[3-(Difluoromethyl)-4-fluoro-phenyl]triazol-4-yl]methoxy]-5-(trifluoromethyl)pyrimidine]  0.007 µM
18. CNc1ccnc(OCc2cn(-c3ccc(Cl)c(OC(F)F)c3)nn2)n1 [Example 171, 2-[[1-[4-Chloro-3-(difluoromethoxy)phenyl]triazol-4-yl]methoxy]-N-methyl-pyrimidin-4-amine]  0.006 µM
19. Cc1cnc(OCc2cn(-c3ccc(Cl)c(C(F)F)c3)nn2)nc1C [Example 86, 2-[[1-[4-Chloro-3-(difluoromethyl)phenyl]triazol-4-yl]methoxy]-4,5-dimethyl-pyrimidine]  0.004 µM
20. Cc1cnc(OCc2cn(-c3ccc(F)c(C(F)F)c3)nn2)nc1 [Example 51, 2-[[1-[3-(Difluoromethyl)-4-fluoro-phenyl]triazol-4-yl]methoxy]-5-methyl-pyrimidine]  0.001 µM
